{
  "source": "patent US4103011A",
  "about": "“Novel penicillin compounds and process for preparation thereof” (priority 1976, dated 1978)",
  "key": {"[1]": {"tested_on": "Pseudomonas aeruginosa No. 12", "assay": "In vivo efficacy against systemic infection", "design": "species or system male mice (ddY)", "details": "for ED50: NO.12, in Mus musculus", "in_short": "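Male ddY mice (about 20 g) infected intraperitoneally with a Pseudomonas aeruginosa No. 12 suspension. Compounds in deionized water were given twice, about 5 minutes and 6 hours after infection. Effective dose calculated by the Behrens-Kaerber method.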"}, "[2]": {"tested_on": "Escherichia coli NIHJ JC-2", "assay": "In vitro antibacterial activity (MIC)", "type": "cell-based", "details": "Escherichia coli, NIHJJC2, read-out: minimum inhibitory concentration (MIC)", "description": "(§1) In vitro antibacterial activity against 20 strains of bacteria\n(§2) The numerals in the table show minimum inhibitory concentrations (MIC)"}, "Proteus mirabilis P-2381": {"tested_on": "Proteus mirabilis P-2381", "assay": "In vitro antibacterial activity (MIC)", "type": "cell-based", "details": "Proteus mirabilis, P2381, read-out: minimum inhibitory concentration (MIC)", "description": "as §1, §2"}, "Proteus morganii Kono": {"tested_on": "Proteus morganii Kono", "assay": "In vitro antibacterial activity (MIC)", "type": "cell-based", "details": "Morganella morganii, read-out: minimum inhibitory concentration (MIC)", "description": "as §1, §2"}, "[3]": {"tested_on": "Klebsiella pneumoniae No. 13", "assay": "In vitro antibacterial activity (MIC)", "type": "cell-based", "details": "Klebsiella pneumoniae, NO.13, read-out: minimum inhibitory concentration (MIC)", "description": "as §1, §2"}, "[4]": {"tested_on": "Pseudomonas aeruginosa Tsuchijima", "assay": "In vitro antibacterial activity (MIC)", "type": "cell-based", "details": "Pseudomonas aeruginosa Tsuchijima; read-out: minimum inhibitory concentration (MIC)", "description": "as §1, §2"}, "Proteus rettgeri P-2503": {"tested_on": "Proteus rettgeri P-2503", "assay": "In vitro antibacterial activity (MIC)", "type": "cell-based", "details": "Providencia rettgeri, P2503; Proteus rettgeri P-2503; read-out: minimum inhibitory concentration (MIC)", "description": "as §1, §2"}, "[5]": {"tested_on": "Shigella flexneri 4a P-330", "assay": "In vitro antibacterial activity (MIC)", "type": "cell-based", "details": "4AP330, read-out: minimum inhibitory concentration (MIC)", "description": "as §1, §2"}, "[6]": {"tested_on": "Enterobacter cloacae P-2540", "assay": "In vitro antibacterial activity (MIC)", "type": "cell-based", "details": "Enterobacter cloacae, P2540, read-out: minimum inhibitory concentration (MIC)", "description": "as §1, §2"}, "[7]": {"tested_on": "Serratia mercescens IFO 3736", "assay": "In vitro antibacterial activity (MIC)", "type": "cell-based", "details": "IFO3736; Serratia mercescens IFO 3736; read-out: minimum inhibitory concentration (MIC)", "description": "as §1, §2"}, "[8]": {"tested_on": "Streptococcus faecalis P-2473", "assay": "In vitro antibacterial activity (MIC)", "type": "cell-based", "details": "Enterococcus faecalis, P2473, read-out: minimum inhibitory concentration (MIC)", "description": "as §1, §2"}, "Shigella flexneri 2a": {"tested_on": "Shigella flexneri 2a", "assay": "In vitro antibacterial activity (MIC)", "type": "cell-based", "details": "read-out: minimum inhibitory concentration (MIC)", "description": "as §1, §2"}, "[9]": {"tested_on": "Pseudomonas aeruginosa No.12", "assay": "In vitro antibacterial activity (MIC)", "type": "cell-based", "details": "Pseudomonas aeruginosa, NO.12, read-out: minimum inhibitory concentration (MIC)", "description": "as §1, §2"}, "Escherichia coli P-140a": {"tested_on": "Escherichia coli P-140a", "assay": "In vitro antibacterial activity (MIC)", "type": "cell-based", "description": "as §1, §2"}, "[10]": {"tested_on": "Salmonella typhimurium S-9", "assay": "In vitro antibacterial activity (MIC)", "type": "cell-based", "details": "Salmonella enterica; Salmonella typhimurium S-9; read-out: minimum inhibitory concentration (MIC)", "description": "as §1, §2"}, "[11]": {"tested_on": "Staphylococcus aureus No. 50774", "assay": "In vitro antibacterial activity (MIC)", "type": "cell-based", "details": "Staphylococcus aureus No. 50774; read-out: minimum inhibitory concentration (MIC)", "description": "as §1, §2"}, "[12]": {"tested_on": "Streptococcus pyogenes 65A", "assay": "In vitro antibacterial activity (MIC)", "type": "cell-based", "details": "Streptococcus pyogenes 65A; read-out: minimum inhibitory concentration (MIC)", "description": "as §1, §2"}, "[13]": {"tested_on": "Staphylococcus aureus 209P JC-1", "assay": "In vitro antibacterial activity (MIC)", "type": "cell-based", "details": "Staphylococcus aureus 209P JC-1; read-out: minimum inhibitory concentration (MIC)", "description": "as §1, §2"}, "[14]": {"tested_on": "Salmonella enteritidis No. 1891", "assay": "In vitro antibacterial activity (MIC)", "type": "cell-based", "details": "Salmonella enterica; Salmonella enteritidis No. 1891; read-out: minimum inhibitory concentration (MIC)", "description": "as §1, §2"}, "[15]": {"tested_on": "Corynebacterium pyogenes C-21", "assay": "In vitro antibacterial activity (MIC)", "type": "cell-based", "details": "Rhodococcus (subgen. Prescottella) equi, C21, read-out: minimum inhibitory concentration (MIC)", "description": "as §1, §2"}, "Escherichia coli P-5101": {"tested_on": "Escherichia coli P-5101", "assay": "In vitro antibacterial activity (MIC)", "type": "cell-based", "details": "P5101; Escherichia coli P-5101; read-out: minimum inhibitory concentration (MIC)", "description": "as §1, §2"}, "[16]": {"tested_on": "Staphylococcus aureus No. 50774", "assay": "In vivo efficacy against systemic infection", "design": "species or system male mice (ddY)", "details": "NO.50774, in Mus musculus, 336 h, sc, twice, about 5 minutes and 6 hours after infection, read-out: ED50 (median effective dose)", "in_short": "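Male ddY mice (~20 g) infected intravenously with 50 to 100 LD50 (about 5 × 10^8 cells/mouse) of S. aureus No. 50774 in saline. Compounds in water or aqueous sodium carbonate (pH 8-9) dosed twice, about 5 minutes and 6 hours post-infection; ED50 (mg/kg) by Behrens-Kaerber method.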"}, "[17]": {"tested_on": "bacteria (systemic infection)", "assay": "In vivo efficacy against systemic infection, overall conclusions", "design": "species or system male mice (ddY)", "details": "Table II", "description": "The contents in the vials (No. A and No. C) prepared in Example 17 were each dissolved in deionized water, and injections having various concentrations were prepared.\nCompounds A, B, F, G, H and M were dissolved in deionized water. Compounds C, D, E and J were dissolved in an aqueous solution of sodium carbonate (pH 8-9) to prepare injections of various concentrations.\nEach of the injections was administered to mice under the conditions described below, and the median effective doses (ED50) obtained are shown in Table II."}},
  "note": "Structures can show the parent of a compound that is named as a salt. Where two headings read alike, the source gives them in different places.",
  "data": [
    {"compound": "CC1(C)S[C@@H]2[C@H](NC(=O)[C@H](NC(=O)c3c[nH]c4nc(N5CCN(C=O)CC5)ncc4c3=O)c3ccc(O)cc3)C(=O)N2[C@H]1C(=O)O", "note": "[Compound 1, D-α-[5,8-Dihydro-2-(4-formyl-1-piperazinyl)-5-oxopyrido[2,3-d]pyrimidine-6-carboxamido]-p-hydroxybenzyl-penicillin sodium salt]", "values": [
      {"measurement": "chemotherapeutic index relative to compounds B, D, E, F, G and J (times as high)", "setting": "mice; Pseudomonas aeruginosa", "value": "3 to 100", "unit": "times"},
      {"measurement": "LD50 relative to compounds A to G (times as high)", "setting": "mice; mice", "value": "2 to 10", "unit": "times"},
      {"measurement": "ED50", "setting": "[1]; iv, twice, about 5 minutes and 6 hours after infection, read-out: ED50 (median effective dose)", "value": 4.1, "unit": "mg/kg"},
      {"measurement": "ED50", "setting": "[1]; parenteral administration, compounds 1 and 2 together, read-out: ED50", "value": "2 to 6", "unit": "mg/kg"},
      {"measurement": "ED50", "setting": "[1]; sc, twice, about 5 minutes and 6 hours after infection, read-out: ED50 (median effective dose)", "value": 2.1, "unit": "mg/kg"},
      {"measurement": "antibacterial activity compared with compounds J and H (in words)", "setting": "[1]; parenteral administration", "value": "far superior antibacterial activity"},
      {"measurement": "antibacterial activity relative to compounds B and C (times as high)", "setting": "[1]; parenteral administration", "value": "3 to 25", "unit": "times"},
      {"measurement": "antibacterial activity relative to compounds D and E (times as high)", "setting": "[1]; parenteral administration", "value": "6 to 20", "unit": "times"},
      {"measurement": "MIC", "setting": "[2]", "value": 3.13, "unit": "µg/mL"},
      {"measurement": "MIC", "setting": "Proteus mirabilis P-2381", "value": 3.13, "unit": "µg/mL"},
      {"measurement": "MIC", "setting": "Proteus morganii Kono", "value": 6.25, "unit": "µg/mL"},
      {"measurement": "MIC", "setting": "[3]", "value": 12.5, "unit": "µg/mL"},
      {"measurement": "MIC", "setting": "[4]", "value": 0.78, "unit": "µg/mL"},
      {"measurement": "MIC", "setting": "Proteus rettgeri P-2503", "value": 25, "unit": "µg/mL"},
      {"measurement": "MIC", "setting": "[5]", "value": 3.13, "unit": "µg/mL"},
      {"measurement": "MIC", "setting": "[6]", "value": 6.25, "unit": "µg/mL"},
      {"measurement": "MIC", "setting": "[7]", "value": 6.25, "unit": "µg/mL"},
      {"measurement": "MIC", "setting": "[8]", "value": 3.13, "unit": "µg/mL"},
      {"measurement": "MIC", "setting": "Shigella flexneri 2a", "value": 3.13, "unit": "µg/mL"},
      {"measurement": "MIC", "setting": "[9]", "value": 3.13, "unit": "µg/mL"},
      {"measurement": "minimum inhibitory concentration (MIC)", "setting": "Escherichia coli P-140a", "value": 12.5, "unit": "µg/mL"},
      {"measurement": "MIC", "setting": "[10]", "value": 0.78, "unit": "µg/mL"},
      {"measurement": "MIC", "setting": "[11]", "value": 1.56, "unit": "µg/mL"},
      {"measurement": "MIC", "setting": "[12]", "value": 0.006, "unit": "µg/mL"},
      {"measurement": "MIC", "setting": "[13]", "value": 0.78, "unit": "µg/mL"},
      {"measurement": "MIC", "setting": "[14]", "value": 0.78, "unit": "µg/mL"},
      {"measurement": "MIC", "setting": "[15]", "value": 3.13, "unit": "µg/mL"},
      {"measurement": "MIC", "setting": "Escherichia coli P-5101", "value": 1.56, "unit": "µg/mL"},
      {"measurement": "ED50", "setting": "[16]", "value": 2.1, "unit": "mg/kg"},
      {"measurement": "antibacterial activity in vivo (in words)", "setting": "[17]", "value": "excellent antibacterial activity in vivo"}
    ]}
  ]
}
